Measured values as given in US7087631B2, “Aryltetrazole compounds, and compositions thereof” (Inotek Pharmaceuticals Corporation, priority 2002, dated 2006).

Target: xanthine oxidase (Homo sapiens, UniProt P47989)
Experiment: Xanthine oxidase inhibitory activity, 96 well plate, kinetic reading at 295 nm
Type: biochemical

Sequence of xanthine oxidase (P47989 whole entry, species assumed): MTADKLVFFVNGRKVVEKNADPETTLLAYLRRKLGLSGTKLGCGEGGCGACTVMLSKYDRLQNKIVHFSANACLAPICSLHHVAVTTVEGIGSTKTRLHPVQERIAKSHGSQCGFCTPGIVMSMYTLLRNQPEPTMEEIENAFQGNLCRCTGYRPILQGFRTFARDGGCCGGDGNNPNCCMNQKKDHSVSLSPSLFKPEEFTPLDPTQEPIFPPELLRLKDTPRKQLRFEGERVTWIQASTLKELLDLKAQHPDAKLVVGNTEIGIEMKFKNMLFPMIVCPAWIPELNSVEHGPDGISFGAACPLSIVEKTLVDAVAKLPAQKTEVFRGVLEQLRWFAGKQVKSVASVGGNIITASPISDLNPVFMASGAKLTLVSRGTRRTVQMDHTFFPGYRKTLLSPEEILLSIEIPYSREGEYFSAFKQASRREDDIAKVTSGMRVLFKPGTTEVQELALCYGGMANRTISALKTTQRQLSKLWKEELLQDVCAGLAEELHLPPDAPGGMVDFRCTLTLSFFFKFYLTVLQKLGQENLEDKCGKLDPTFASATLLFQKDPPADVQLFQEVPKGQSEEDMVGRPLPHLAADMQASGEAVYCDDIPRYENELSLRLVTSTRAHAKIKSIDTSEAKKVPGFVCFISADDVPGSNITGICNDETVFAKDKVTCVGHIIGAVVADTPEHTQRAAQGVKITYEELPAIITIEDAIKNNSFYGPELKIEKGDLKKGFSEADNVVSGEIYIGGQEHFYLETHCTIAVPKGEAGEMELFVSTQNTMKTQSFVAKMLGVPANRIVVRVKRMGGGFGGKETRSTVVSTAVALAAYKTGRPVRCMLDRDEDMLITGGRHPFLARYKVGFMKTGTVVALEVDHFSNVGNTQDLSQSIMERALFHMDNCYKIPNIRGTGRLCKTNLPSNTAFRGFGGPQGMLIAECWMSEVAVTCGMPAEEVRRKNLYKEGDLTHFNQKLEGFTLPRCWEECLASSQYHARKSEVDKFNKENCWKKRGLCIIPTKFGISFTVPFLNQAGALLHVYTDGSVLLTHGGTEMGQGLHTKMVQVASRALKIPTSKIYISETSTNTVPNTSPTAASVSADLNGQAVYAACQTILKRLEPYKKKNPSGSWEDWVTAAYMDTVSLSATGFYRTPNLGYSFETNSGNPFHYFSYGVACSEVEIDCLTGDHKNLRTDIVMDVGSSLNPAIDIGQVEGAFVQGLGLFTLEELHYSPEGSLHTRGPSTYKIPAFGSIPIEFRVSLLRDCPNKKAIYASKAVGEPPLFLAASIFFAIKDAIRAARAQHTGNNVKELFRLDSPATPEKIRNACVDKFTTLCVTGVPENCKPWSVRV

| Compound | PERCENT XANTHINE OXIDASE INHIBITION (compound concentration 0.03 μM) | PERCENT XANTHINE OXIDASE INHIBITION (compound concentration 0.1 μM) | PERCENT XANTHINE OXIDASE INHIBITION (compound concentration 1 μM) | PERCENT XANTHINE OXIDASE INHIBITION (compound concentration 100 μM) | other results |
| --- | --- | --- | --- | --- | --- |
| O=C(Nc1ccc(F)cc1F)c1ccc(-c2nnn[nH]2)cc1 [IZ] | 23% | 52% | 89% |  |  |
| CC(=O)c1ccc(-c2nnn[nH]2)cc1 [FU] |  |  | 9% | 92% | PERCENT XANTHINE OXIDASE INHIBITION (compound concentration 10 μM): 54% |
| COc1ccc2cc(-c3nnn[nH]3)ccc2c1 [JR] |  |  | 14% | 85% | PERCENT XANTHINE OXIDASE INHIBITION (compound concentration 10 μM): 56% |
| N#Cc1cc(-c2nnn[nH]2)ccc1C(=O)Nc1ccncc1 [JG] | 33% | 61% | 93% |  |  |
| Fc1ccc(-c2nnn[nH]2)cc1Cl [Compound HE] |  |  |  | 33% |  |
| C=C(C)C1CC=C(COC(=O)c2ccc(-c3nnn[nH]3)cc2)CC1 (stereo not shown) [GR] |  | 8% | 48% |  | PERCENT XANTHINE OXIDASE INHIBITION (compound concentration 0.01 μM): 0% |
| O=C(NCc1cccnc1)c1ccc(-c2nnn[nH]2)cc1 [HC] |  |  | 25% |  |  |
| O=C(Nc1cccc(F)c1)c1ccc(-c2nnn[nH]2)cc1 [HW] | 32% | 62% | 89% |  |  |
| O=[N+]([O-])c1cc(-c2nnn[nH]2)ccc1Cl [HF] |  |  |  | 80% |  |
| O=C(O)Cc1ccc(NC(=O)c2ccc(-c3nnn[nH]3)cc2)cc1 [II] | 20% | 45% | 90% |  |  |
| O=C(NC12CC3CC(CC(C3)C1)C2)c1ccc(-c2nnn[nH]2)cc1 [HT] | 15% | 23% | 62% |  |  |
| c1ccc(COc2ccc(-c3nnn[nH]3)cc2)cc1 [IV] |  | 10% | 35% |  |  |
| O=C(Nc1ccc(-c2nnn[nH]2)cc1)c1ccccc1 [Compound IT] | 7% | 15% | 56% |  |  |
| CCCCc1ccc(NC(=O)c2ccc(-c3nnn[nH]3)cc2)cc1 [IH] | 33% | 63% | 95% |  |  |
| CCCOC(=O)c1ccc(-c2nnn[nH]2)cc1 [HR] |  | 95% | 95% |  | PERCENT XANTHINE OXIDASE INHIBITION (compound concentration 0.05 μM): 34% |
| N#Cc1cc(-c2nnn[nH]2)ccc1C(=O)Nc1ccccc1 [JF] |  | 6% | 34% |  |  |
| Cc1cc(C(=O)Nc2ccccc2)ccc1-c1nnn[nH]1 [JK] |  |  | 0% |  |  |
| CC(C)COc1ccc(-c2nnn[nH]2)cc1 [JP] | 46% | 74% | 98% |  |  |
| CCOC(=O)c1ccc(-c2nnn[nH]2)cc1 [FV] |  |  | 64% | 100% | PERCENT XANTHINE OXIDASE INHIBITION (compound concentration 10 μM): 92% |
| O=C(NCc1ccccc1)c1ccc(-c2nnn[nH]2)cc1 [JA] |  | 0% |  |  |  |
| O=C(Nc1ccc(F)cc1)c1ccc(-c2nnn[nH]2)cc1 [Compound HX] | 37% | 59% | 92% |  |  |
| O=C(Nc1cccc(I)c1)c1ccc(-c2nnn[nH]2)cc1 [HZ] | 20% | 41% | 88% |  |  |
| c1ccc(CCCOc2ccc(-c3nnn[nH]3)cc2)cc1 [IW] |  | 9% | 22% |  |  |

| Compound | PERCENT XANTHINE OXIDASE INHIBITION (compound concentration 0.03 μM) | PERCENT XANTHINE OXIDASE INHIBITION (compound concentration 0.1 μM) | PERCENT XANTHINE OXIDASE INHIBITION (compound concentration 1 μM) | PERCENT XANTHINE OXIDASE INHIBITION (compound concentration 100 μM) | other results |
| --- | --- | --- | --- | --- | --- |
| COc1ccc(-c2nnn[nH]2)c2ccccc12 [HM] |  |  |  | 27% |  |
| CC(C)c1ccccc1NC(=O)c1ccc(-c2nnn[nH]2)cc1 [IF] |  |  | 16% |  |  |
| O=C(OCc1ccco1)c1ccc(-c2nnn[nH]2)cc1 [HP] |  | 91% | 100% |  | PERCENT XANTHINE OXIDASE INHIBITION (compound concentration 0.05 μM): 41% |
| CCC#CCOC(=O)c1ccc(-c2nnn[nH]2)cc1 [GQ] |  | 35% | 78% |  | PERCENT XANTHINE OXIDASE INHIBITION (compound concentration 0.01 μM): 0% |
| O=C(NCc1ccc2c(c1)OCO2)c1ccc(-c2nnn[nH]2)cc1 [HB] |  |  | 25% |  |  |
| COc1cccc(NC(=O)c2ccc(-c3nnn[nH]3)cc2)c1 [IL] | 21% | 46% | 86% |  |  |
| O=C(OCc1ccc(Br)cc1)c1ccc(-c2nnn[nH]2)cc1 [GU] |  | 69% | 94% |  | PERCENT XANTHINE OXIDASE INHIBITION (compound concentration 0.01 μM): 17% |
| O=C(Nc1ccccc1)c1cccc(-c2nnn[nH]2)c1 [IO] |  |  | 0% |  |  |
| CCCCOC(=O)c1ccc(-c2nnn[nH]2)cc1 [FX] |  |  | 73% | 95% | PERCENT XANTHINE OXIDASE INHIBITION (compound concentration 10 μM): 95% |
| CC(C)(C)OC(=O)N1CCN(C(=O)c2ccc(-c3nnn[nH]3)cc2)CC1 [HK] |  |  |  | 43% |  |
| COc1ccc(NC(=O)c2ccc(-c3nnn[nH]3)cc2)cc1 [IJ] | 27% | 58% | 93% |  |  |
| COc1cc(-c2nnn[nH]2)ccc1OCC(C)C [JD] |  | 0% | 28% |  |  |
| COc1ccccc1NC(=O)c1ccc(-c2nnn[nH]2)cc1 [IK] | 9% | 17% | 55% |  |  |
| c1cncc(-c2ccc(-c3nnn[nH]3)cc2)c1 [HI] |  |  | 14% | 70% | PERCENT XANTHINE OXIDASE INHIBITION (compound concentration 10 μM): 24% |
| O=C(OCc1cccc(Cl)c1)c1ccc(-c2nnn[nH]2)cc1 [GD] |  |  | 79% | 100% | PERCENT XANTHINE OXIDASE INHIBITION (compound concentration 10 μM): 82% |
| CCc1cccc(NC(=O)c2ccc(-c3nnn[nH]3)cc2)c1 [IE] | 22% | 38% | 87% |  |  |
| CC(=O)c1cccc(NC(=O)c2ccc(-c3nnn[nH]3)cc2)c1 [Compound IA] | 31% | 54% | 90% |  |  |
| O=C(OCCN1CCOCC1)c1ccc(-c2nnn[nH]2)cc1 [GK] |  | 12% | 46% |  | PERCENT XANTHINE OXIDASE INHIBITION (compound concentration 0.01 μM): 3% |
| O=C(OCc1ccccc1I)c1ccc(-c2nnn[nH]2)cc1 [GX] |  |  | 100% |  | PERCENT XANTHINE OXIDASE INHIBITION (compound concentration 0.01 μM, 0.01 µM): 19%; PERCENT XANTHINE OXIDASE INHIBITION (compound concentration 0.1 μM, 0.1 µM): 84% |
| COc1ccc(-c2nnn[nH]2)cc1 [FK] |  |  |  | 71% | PERCENT XANTHINE OXIDASE INHIBITION (compound concentration 10 μM): 30% |
| CCCCCCOC(=O)c1ccc(-c2nnn[nH]2)cc1 [GF] |  |  | 28% | 97% | PERCENT XANTHINE OXIDASE INHIBITION (compound concentration 10 μM): 79% |
| O=C(OCc1ccccc1)c1ccc(-c2nnn[nH]2)cc1 [GA] |  |  | 78% | 100% | PERCENT XANTHINE OXIDASE INHIBITION (compound concentration 10 μM): 100% |
| Fc1ccccc1-c1nnn[nH]1 [FP] |  |  |  | 21% | PERCENT XANTHINE OXIDASE INHIBITION (compound concentration 10 μM): 3% |
